Source: paper PMC6272622, “Phytochemical Profiling and Evaluation of Pharmacological Activities of Hypericum scabrum L” (Molecules, 2015)
Read-outs that look alike come from different tables or passages of the source.

How the values were obtained:
[1] = tested on: Candida albicans ATCC 10231; assay: Antimicrobial activity, agar well diffusion method; type: cell-based; details: 37 °C, 24 h
Method: (§1) Antimicrobial activity of compounds 1 to 6 and crude extracts 7a, 8a, 9a; 10 to 13 were measured using the agar well diffusion method. Bacterial and fungal pathogens such as S. aureus (ATCC 6538), E. coli (ATCC 11229) and C. albicans (ATCC 10231) were used as indicator strains for this analysis. These microorganisms were aseptically inoculated into appropriate liquid media and incubated at 37 °C. After 16 h, the cells were centrifuged at 6000 rpm for 10 min and then suspended in sterile water. The different cells (1 mL) were added to appropriate agar media (100 mL) prior to plating, and the wells were made using an agar well borer. To these wells, different concentrations of compounds 1 to 6 and the extracts 7a, 8a, 9a; 10 to 13 were added and subsequently incubated at 37 °C for 24 h. Zones of inhibition were estimated by measuring the diameter of the microbial growth inhibition zones. Values were averaged from three independent experiments.

[2] = DPPH radical scavenging assay; details: 37 °C, 30 min, 515 nm; for IC50: pure compounds, read-out: DPPH Scavenging Effects, IC50 Values
Method: Radical scavenging assay was determined by a micro plate spectrophotometric method based on the reduction of DPPH according to the previous report. Various dilutions of pure compounds and crude extracts in the concentration range 0.0625 to 1 mM and 0.0625 to 1 mg∙mL^−1, respectively were made. Briefly DPPH solution (100 μL) and pure compound or crude extract in DMSO (100 μL) were added to each well of the micro plate and mixed. The mixture was shaken vigorously and left to stand at 37 °C for 30 min in dark. The absorbance of the solution was then measured at wavelength 515 nm using a micro plate spectrophotometer. Inhibition (%) of free radical (DPPH) was determined as [(Acontrol − Asample)/Acontrol] × 100, where: Acontrol is the absorbance of the control sample containing all reagents except the test sample and Asample is the absorbance of the test sample (pure compound or crude extract). Vitamin C was used as the positive control and tests were carried out in triplicate. The IC50 values were determined for all tested flavonoids, extract and control standard antioxidant.

[3] = tested on: Escherichia coli ATCC 11229; assay: Antimicrobial activity, agar well diffusion method; type: cell-based; details: 37 °C, 24 h
Method: as §1

[4] = tested on: Staphylococcus aureus ATCC 6538; assay: Antimicrobial activity, agar well diffusion method; type: cell-based; details: 37 °C, 24 h
Method: as §1

[5] = biological target: T1, Protein tyrosine phosphatase 1B (PTP-1B) (Homo sapiens, UniProt P18031); assay: Protein tyrosine phosphatase 1B (PTP-1B) inhibition assay with pNPP substrate; type: biochemical
T1 sequence (P18031 1-435): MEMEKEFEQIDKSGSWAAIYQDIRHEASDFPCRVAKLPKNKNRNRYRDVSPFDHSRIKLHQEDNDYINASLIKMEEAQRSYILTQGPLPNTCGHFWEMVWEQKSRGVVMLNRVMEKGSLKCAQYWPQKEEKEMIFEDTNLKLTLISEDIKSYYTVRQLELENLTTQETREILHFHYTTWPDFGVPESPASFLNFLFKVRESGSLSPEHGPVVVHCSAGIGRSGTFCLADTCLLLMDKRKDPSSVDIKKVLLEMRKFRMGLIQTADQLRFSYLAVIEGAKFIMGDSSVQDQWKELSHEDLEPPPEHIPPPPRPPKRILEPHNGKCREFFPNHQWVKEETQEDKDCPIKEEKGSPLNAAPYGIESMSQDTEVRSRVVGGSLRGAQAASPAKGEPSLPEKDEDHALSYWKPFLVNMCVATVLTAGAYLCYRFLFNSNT
Method: Compounds were pre-incubated with the enzyme at room temperature for 5 min. Then, 178 µL of buffer solution (20 mM HEPES, 150 mM NaCl, 1 mM EDTA) was added in 96-well plates. […] After that, 1 µL of test and positive control sample were added. Thereafter, 20 µL of the substrate pNPP (35 mM) was added and mixed for 10 min. The plate was incubated in the dark for 30 min and the reaction was terminated by adding 10 µL of 3 M NaOH. The absorbance was then determined at 405 nm wavelength. […] Inhibition (%) = [(OD405 − OD405 blank)/OD405 blank] × 100. IC50 was calculated from the percentage inhibition values.

[6] = pNPP substrate, absorbance at 405 nm

IC50 [2] [µM] | DPPH Scavenging Effects; IC50 Values ([2]; crude extracts) [µg/mL] | SMILES | Inhibition Zone Diameter CA [1] | Inhibition Zone Diameter EC [3] | Inhibition Zone Diameter SA [4] | IC50 [5, 6] [µM] | IC50 [5] [µM]
 |  | C[C@@H]1[C@H](O)[C@@H](C)/C=C/C=C/C=C/C=C/C=C/C=C/C=C/[C@H](O[C@@H]2O[C@H](C)[C@@H](O)[C@H](N)[C@@H]2O)C[C@@H]2O[C@](O)(C[C@@H](O)C[C@@H](O)[C@H](O)CC[C@@H](O)C[C@@H](O)CC(=O)O[C@H]1C)C[C@H](O)[C@H]2C(=O)O [Amphotericin B, reference compound] | 15 mm |  |  |  | 
38.3 ± 2 |  | O=c1c(O[C@@H]2O[C@@H](CO)[C@H](O)[C@H]2O)c(-c2ccc(O)c(O)c2)oc2cc(O)cc(O)c12 [Compound 3, Quercetin-3-O-α-L-arabinofuranoside] | n.e. | 5.5 mm | n.e. | > 50 | 
 |  | CC1(C)S[C@@H]2[C@H](NC(=O)[C@H](N)c3ccccc3)C(=O)N2[C@H]1C(=O)O [Ampicillin, reference compound] |  | 14 mm | 19 mm |  | 
24.9 ± 1.4 |  | O=c1c(O)c(-c2ccc(O)c(O)c2)oc2cc(O)cc(O)c12 [Compound 2, Quercetin] | 6.5 mm | n.e. | 12 mm |  | 
> 500 |  | O=c1c(-c2c(O)cc(O)c3c(=O)cc(-c4ccc(O)cc4)oc23)c(-c2ccc(O)cc2)oc2cc(O)cc(O)c12 [Compound 1, 3-8′′-Bisapigenin] | n.e. | n.e. | 5.5 mm | > 50 | 
30.3 ± 2.4 | 5.34 ± 0.4 | O=C1O[C@H]([C@@H](O)CO)C(O)=C1O [Vitamin C, reference compound] |  |  |  |  | 

SMILES | IC50 [2] [µM] | DPPH Scavenging Effects; IC50 Values ([2]; crude extracts) [µg/mL] | Inhibition Zone Diameter CA [1] | Inhibition Zone Diameter EC [3] | Inhibition Zone Diameter SA [4] | IC50 [5, 6] [µM] | IC50 [5] [µM]
O=c1c(O[C@@H]2O[C@H](CO)[C@@H](O)[C@H](O)[C@H]2O)c(-c2ccc(O)c(O)c2)oc2cc(O)cc(O)c12 [Compound 5, Quercetin-3-O-β-D-glucopyranoside] | 24.8 ± 1.3 |  | n.e. | n.e. | 11 mm | > 50 | 
O=c1c(O[C@@H]2O[C@H](CO)[C@H](O)[C@H](O)[C@H]2O)c(-c2ccc(O)c(O)c2)oc2cc(O)cc(O)c12 [Compound 6, Quercetin-3-O-β-D-galactopyranoside] | 29.5 ± 1.5 |  | n.e. | 6.5 mm | 11 mm | > 50 | 
C[C@@H]1O[C@@H](Oc2c(-c3ccc(O)c(O)c3)oc3cc(O)cc(O)c3c2=O)[C@H](O)[C@H](O)[C@H]1O [Compound 4, Quercetin-3-O-α-L-rhamnoside] | 32.1 ± 1.6 |  | 5.5 mm | 8 mm | n.e. |  | > 50
